How the values were obtained:
MM1 cells = assay: aPL signaling and internalization in MM1 cells with sphingomyelinase inhibitor; format: cell-based, human
Experimental: (A) aPL-mediated TF activation, PS exposure measured by annexin 5 staining, ROS production and TNFα induction as well as (B) aPL internalization in MM1 cells was blocked by sphingomyelinase inhibitor desipramine. Bar=5 μm. (C) aPL-induced ASM activity in MM1 cells is blocked by inhibitors of FXa, thrombin, and PAR1 cleavage. (D) Live cell imaging of surface ASM exposure in MM1 cells after 30 minutes of stimulation with Fab′2 aPL HLSB. Bar=5 μm. (E) ASM activity in unstimulated cell lysates after addition of sEPCR-LBPA (2.504) is blocked by αEPCR 1682. For all ASM activity assays: mean±SD, n=3. * p<0.0003; one-way ANOVA, Dunnett multiple-comparison test. […] (G, H) Thrombosis induction by dual reactive aPL HL7G in the indicated mouse strains or WT mice in presence of indicated αEPCR. (F-H) Quantification of thrombus size 3 hours after aPL injection; median, interquartile range, and range; n=6-11; * p <0.004; one-way ANOVA, Dunnett multiple-comparison test compared to αEPCR 1650. (I, J) Thrombosis induction by aPL HLSB (I) or IgG isolated from age-matched 16 weeks old lupus-prone MRL/lpr and MRL control mice (J) in the indicated mouse strains. Quantification of thrombus size 3 hours after aPL injection; median, interquartile range, and range; (I) n=6-10; * p=0.001; unpaired t-test. (J) n=5; * p=0.0025; two-way ANOVA, Sidak's multiple comparisons test. […]

LBPA-loaded EPCR = target: T1, LBPA-loaded EPCR (Mus musculus, UniProt Q64695, C242S); assay: Flow cytometry surface staining of monocytes with αEPCR 1682 and αLBPA 6C4; format: binding; details: LBPA added to culture medium, 10 μM, 10 min
T1 construct: endogenous in cells; host or cells: mouse CD115+ spleen monocytes; murine microvascular endothelial cells
T1 sequence (Q64695 18-242 C242S): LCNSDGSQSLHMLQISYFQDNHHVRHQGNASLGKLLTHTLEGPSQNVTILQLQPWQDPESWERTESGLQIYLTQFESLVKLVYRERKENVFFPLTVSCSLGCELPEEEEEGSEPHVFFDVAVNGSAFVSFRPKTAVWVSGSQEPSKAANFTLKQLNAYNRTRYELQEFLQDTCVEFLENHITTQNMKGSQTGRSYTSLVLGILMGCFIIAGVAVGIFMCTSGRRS
Source text: (A) Effect of aPL HL5B, aPL HL7G, and αEPCR antibodies on EPCR-dependent aPC generation on murine microvascular endothelial cells. (B) Effect of anti-mouse EPCR antibodies 1682 and 1650 on Tnfα mRNA induction by aPL HL5B and HL7G; mean±SD, n=6. * p<0.0001; one-way ANOVA, Dunnett multiple-comparison. (C) Effect of αEPCR on aPL HL5B and HL7G internalization in CD115+ splenocytes. Bar=5 μm. (D) Flow cytometry detection of FXa and EPCR on CD115+ spleen monocytes isolated from indicated mouse strains. (E) Effect of pre-treatment with 10 μM LBPA for 10 min on surface binding of αEPCR 1682 and αLBPA 6C4 on indicated monocytes; mean±SD, n=6. * p<0.003; multiple t-tests. (F) Competition of αEPCR 1650 and 1682 with binding of FITC-labelled anti-LBPA antibody 6C4 to mouse CD115+ splenocytes. (G) Competition of αLBPA 6C4 with binding of αEPCR 1682 to mouse monocytes. (H) Effect of LBPA, cardiolipin (CL), and phosphatidylserine (PS) (10 μM) on aPL HLSB signalling in EPCR^C/S monocytes. Induction of TNF after 3 hours is shown; mean±SD, n=6. (I) LBPA loading of purified mouse or human sEPCR evidenced by faster mobility on native gels. (J) Surface plasmon resonance analysis of aPL HLSB binding to purified human sEPCR or sEPCR-LBPA. The affinity calculation was based on a monovalent binding model because no cooperative binding was evident. […]

EPCR^C/S monocytes [1] = assay: Lipid supplementation and aPL signalling in EPCR^C/S monocytes; format: cell-based, mouse; details: 10 μM lipid, TNF induction after 3 hours
Source text: (A) Effect of aPL HL5B, aPL HL7G, and αEPCR antibodies on EPCR-dependent aPC generation on murine microvascular endothelial cells. (B) Effect of anti-mouse EPCR antibodies 1682 and 1650 on Tnfα mRNA induction by aPL HL5B and HL7G; mean±SD, n=6. * p<0.0001; one-way ANOVA, Dunnett multiple-comparison. (C) Effect of αEPCR on aPL HL5B and HL7G internalization in CD115+ splenocytes. Bar=5 μm. (D) Flow cytometry detection of FXa and EPCR on CD115+ spleen monocytes isolated from indicated mouse strains. (E) Effect of pre-treatment with 10 μM LBPA for 10 min on surface binding of αEPCR 1682 and αLBPA 6C4 on indicated monocytes; mean±SD, n=6. * p<0.003; multiple t-tests. (F) Competition of αEPCR 1650 and 1682 with binding of FITC-labelled anti-LBPA antibody 6C4 to mouse CD115+ splenocytes. (G) Competition of αLBPA 6C4 with binding of αEPCR 1682 to mouse monocytes. (H) Effect of LBPA, cardiolipin (CL), and phosphatidylserine (PS) (10 μM) on aPL HLSB signalling in EPCR^C/S monocytes. Induction of TNF after 3 hours is shown; mean±SD, n=6. (I) LBPA loading of purified mouse or human sEPCR evidenced by faster mobility on native gels. (J) Surface plasmon resonance analysis of aPL HLSB binding to purified human sEPCR or sEPCR-LBPA. The affinity calculation was based on a monovalent binding model because no cooperative binding was evident.
(A) TNFα mRNA induction after 2 hours by HLSB is prevented in Alix-deficient trophoblast cells; mean±SD, n=6. * p<0.0001; t-test following Shapiro-Wilk test for normal distribution. (B, C) Proximity ligation assays (PLA) for ASM and EPCR on scrambled control JARs or ALIX−/− cells after 10 minutes of stimulation with HLSB (B) or thrombin (C) with or without LBPA loading. Bar=25 μm. (D) aPL internalization in ALIX deficient JAR cells and signalling in EPCR^C/S monocytes (E) was restored by adding 10 μM LBPA (S,R) but not by other phospholipids. (F) Pregnancy loss was scored at day 15.5 p.c. after injection of aPL HLSB on days 8 and 12. * p<0.02; one-way ANOVA, Dunnett multiple-comparison test. […]

[2] = system: acidic sphingomyelinase (ASM); assay: ASM activity in CD115+ spleen monocytes stimulated with aPL HLSB; format: cell-based, mouse; details: EPCR^C/S monocytes, LBPA 10 μM
Experimental: (A) WT CD115+ spleen monocyte induction of ASM activity after 15 minutes aPL HLSB stimulation with the indicated inhibitors. (B) LBPA (10 μM) loading of EPCR^C/S cells enabled ASM activation in CD115+ monocytes stimulated with HLSB.
ASM requires LBPA for activity (33). […] Thrombin stimulation to induce ASM surface expression was sufficient to trigger ASM activation that was blocked by extracellular addition of αEPCR-LBPA 1682 (FIG. 6C). TfpiΔK1 cells expressed LBPA-loaded EPCR (FIG. 3D), but lack surface FXa to trigger thrombin generation. […] In turn, ASM modification of surface lipid modification is required for endosomal trafficking and signaling of EPCR-bound aPL.

human trophoblast cells = assay: TNFα mRNA induction by HLSB in ALIX knock-down trophoblast cells; format: cell-based; details: extracellular LBPA supplemented
Experimental: (A) TNFα mRNA induction after 2 hours by HLSB is prevented in Alix-deficient trophoblast cells; mean±SD, n=6. * p<0.0001; t-test following Shapiro-Wilk test for normal distribution. (B, C) Proximity ligation assays (PLA) for ASM and EPCR on scrambled control JARs or ALIX−/− cells after 10 minutes of stimulation with HLSB (B) or thrombin (C) with or without LBPA loading. Bar=25 μm. (D) aPL internalization in ALIX deficient JAR cells and signalling in EPCR^C/S monocytes (E) was restored by adding 10 μM LBPA (S,R) but not by other phospholipids. (F) Pregnancy loss was scored at day 15.5 p.c. after injection of aPL HLSB on days 8 and 12. * p<0.02; one-way ANOVA, Dunnett multiple-comparison test. (G) Schematic representation of aPL signalling leading to thrombosis or pregnancy complications.
The importance of this pathway in human trophoblast cells by knock-down of ALIX (FIG. 8A) was evaluated, which is required for normal lysosomal functioning. ALIX knock-down diminished LBPA cell surface presentation, but not EPCR expression (FIG. 8B) and abolished aPL-induced, but not TNFα-induced proinflammatory effects.

EPCR^C/S monocytes [3] = assay: Gbp2 mRNA induction by aPL in EPCR^C/S monocytes; format: cell-based, mouse; details: 1 hour stimulation with aPL
Experimental: (§1) (A) Gbp2 mRNA induction after 1 hour stimulation with HL5B, HL7G, or LPS (100 ng/ml) in EPCR^C/S or WT monocytes with or without addition of LBPA. (B) WT monocytes were stimulated for 1 hour with IgG isolated from MRL/lpr lupus-prone or control MRL mice in the presence of the indicated antibodies to EPCR. (C) Human monocyte-derived DC were co-cultured with B cells in the presence of TLR7/8 agonist R848 and aPL HL5B with the indicated antibodies to human EPCR. Anti-cardiolipin titers were determined after 10 days. (D-F) Co-cultures of isolated spleen plasmacytoid dendritic cells (pDC) and B cells from the indicated mouse strains were co-cultured with Tlr7 agonist R848 and aPL HL5B for 10 days, followed by determination of anti-cardiolipin titers. IFNR^−/−, type I interferon receptor deficient mice.
Further, it was investigated whether the identified target for lipid-reactive aPL contributes to the development of autoimmunity. Upregulation of interferon responses in circulating immune cells are linked to the development of APS (38, 39). […] In addition, IgG isolated from MRL/lpr lupus erythematosus mice, but not MRL control mice induced interferon responses dependent on EPCR-LPBA in monocytes (FIG. 9B).

EPCR^C/S pDC = assay: Mouse pDC and B cell co-culture with R848 and aPL HL5B, anti-cardiolipin titers; format: cell-based; details: co-cultures with EPCR^C/S pDC
Experimental: as §1
Supporting this conclusion, anti-cardiolipin antibody production was absent when mouse pDC, but not B cells, were isolated from EPCR^C/S mice (FIG. 9D). Addition of LBPA or interferon a restored the expansion of anti-cardiolipin producing B cells in co-cultures with aPL signaling-deficient EPCR^C/S pDC (FIG. 9D). In contrast, cells deficient in LRP8, the receptor for β2GPI, produced anti-cardiolipin antibodies normally in response to co-stimulation of aPL and Tlr7 agonist (FIG. 9E).

monocytes = assay: Induction of IFN-regulated genes and TNFα in monocytes by aPL or Tlr7 agonist; format: cell-based, mouse
Experimental: (B) Induction of IFN-regulated genes by aPL. (C) TF and Tnfα mRNA induction by aPL HL5B or HL7G stimulation of CD115+ splenocytes of indicated mice stimulated for 3 hours, as well as early ROS production; mean±SD, n=6; * p<0.0001; one-way ANOVA, Dunnett multiple-comparison test. (D) Live cell imaging of HL5B internalization in monocytes of indicated mouse strains. Bar=5 μm. (E) Live cell imaging of aPL HL5B Fab′2 or IgG colocalization with EPCR using non-inhibitory αEPCR 1489 in human MM1 cells. (F) Internalization of EPCR, FVIIa, and TF in MM1 cells stimulated for 15 minutes similarly required proteases and integrin trafficking. For quantification of internalization, surface staining was quenched with 0.4% trypan blue; mean±SD, n=6. * p<0.0001; one-way ANOVA, Dunnett multiple-comparison test compared to IgG control.
FXa generated by the coagulation initiator TF-FVIIa utilizes the endothelial protein C receptor (EPCR) for protease activated receptor (PAR) 2 cleavage that is specifically required for LPS-induced interferon (IFN) responses (15, 16).

For `CNCCCN1c2ccccc2CCc2ccccc21` [desipramine], the aPL internalization (MM1 cells) was “blocked” and the “aPL-mediated TF activation, PS exposure, ROS production and TNFα induction” value (MM1 cells) was “blocked”.
In the case of lysobisphosphatidic acid [LBPA], the “cell surface αLBPA 6C4 and αEPCR 1682 staining of EPCR^C/S cells” value (LBPA-loaded EPCR) is reported as “restored”, the “aPL pro-inflammatory signaling of EPCR^C/S cells after lipid supplementation” value (EPCR^C/S monocytes [1]) is reported as “restored aPL pro-inflammatory signaling” and the “ASM activation by aPL after extracellular addition of LBPA” value [2] is reported as “restored ASM activation”. The “aPL signaling in ALIX knock-down trophoblast cells” value (human trophoblast cells) was “restored aPL signaling”, the “interferon responses (GBP2) in EPCR^C/S monocytes” value (EPCR^C/S monocytes [3]) was “restored interferon responses” and the “expansion of anti-cardiolipin producing B cells” value (EPCR^C/S pDC) was “restored”.
In the case of `CCOCc1nc2c(N)nc3ccccc3c2n1CC(C)(C)O` [R848], the “induction of TNFα” value (monocytes) is reported as “upregulated only TNFα”.
